{"source": "patent US9901553B2", "about": "“Method of modulating the activity of a nucleic acid molecule” (DUKE UNIVERSITY, priority 2007, dated 2018)", "molecules": {"B1": {"name": "VWF aptamer 9.3: Von Willebrand factor aptamer (SEQ ID NO: 5) (nucleic acid)", "chain": "GGGAGGACGAUGCGGAUCGCGCUCUCCUGCUUAAGCAGCUAUCAAAUAGCCCACUCAGACGACUCGCUGAGGAUCCGAGA", "modifications": "listed as RNA, chemistry not given here"}, "B2": {"name": "VWF aptamer 9.14: Von Willebrand factor aptamer (SEQ ID NO: 3) (nucleic acid)", "chain": "GGGAGGACGAUGCGGUGGACGAACUGCCCUCAGCUACUUUCAUGUUGCUGACGCACAGACGACUCGCUGAGGAUCCGAGA", "modifications": "listed as RNA, chemistry not given here"}}, "key": {"aptamer 11F7T": {"system": "aptamer 11F7T", "assay": "APTT clotting assay: antidote reversal of factor Xa aptamer in human plasma", "conditions": "for reversal of factor Xa aptamer (11F7T) anticoagulant activity: antidote 2.5 μg (per 160 μl), human plasma"}, "[1]": {"conditions": "in vivo; cited from earlier work"}, "[2]": {"system": "Factor IXa aptamer (Ch-9.3t)", "assay": "Swine systemic anticoagulation, ACT: antidote reversal", "assay_type": "in vivo", "conditions": "protamine 10 mg/kg; for reversal of aptamer anticoagulation (ACT): 30 minutes post aptamer"}, "aptamer 9.3t [3]": {"system": "aptamer 9.3t", "assay": "APTT clotting assay: antidote reversal of factor IXa aptamer in human plasma", "conditions": "for reversal of factor IXa aptamer (9.3t / Ch-9.3t) anticoagulant activity: antidote 2.5 μg (per 160 μl), human plasma"}, "aptamer 9.3t [4]": {"system": "aptamer 9.3t", "assay": "Isothermal titration calorimetry, two-sites binding model (Table 5)", "conditions": "for K1: first stage binding; for affinity for aptamer 9.3t (in words): two-site model"}, "aptamers 9.3t and 11F7T": {"system": "aptamers 9.3t and 11F7T", "assay": "APTT clotting assay: reversal of both aptamers simultaneously", "assay_type": "biochemical, human", "conditions": "protamine 2.5 μg per 160 μl", "method": "All reactions were performed in triplicate."}, "human plasma": {"system": "human plasma", "assay": "APTT clotting time with antidote alone (no aptamer)", "assay_type": "biochemical"}, "human factor IXa": {"target": "human factor IXa (Homo sapiens, UniProt P00740)", "sequence (P00740 227-461 limits assumed)": "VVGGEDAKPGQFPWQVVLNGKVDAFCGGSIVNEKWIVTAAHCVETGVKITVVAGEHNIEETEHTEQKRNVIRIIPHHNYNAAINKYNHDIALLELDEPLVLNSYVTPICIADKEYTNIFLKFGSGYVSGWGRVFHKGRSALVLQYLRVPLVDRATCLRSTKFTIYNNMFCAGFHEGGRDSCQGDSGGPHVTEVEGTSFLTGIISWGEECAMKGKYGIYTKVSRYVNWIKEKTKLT", "sequence (P00740 47-191 limits assumed)": "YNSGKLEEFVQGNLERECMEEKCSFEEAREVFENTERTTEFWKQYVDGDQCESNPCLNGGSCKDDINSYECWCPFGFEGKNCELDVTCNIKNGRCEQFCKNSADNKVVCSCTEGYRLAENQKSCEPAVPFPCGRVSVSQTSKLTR", "assay": "APTT clotting assay: anticoagulant activity of factor IXa aptamer", "conditions": "FIG. 5B"}, "[5]": {"conditions": "in vivo; cited from earlier work", "remark": "listed apart in the source"}, "[6]": {"conditions": "in vivo; cited from earlier work", "remark": "listed apart in the source"}, "Aptamer Ch-9.3t": {"system": "Aptamer Ch-9.3t", "assay": "Isothermal titration calorimetry (Example V, Table 3)", "assay_type": "binding", "conditions": "ITC, 298K, PBS"}, "VWF": {"target": "T1, VWF (Homo sapiens, UniProt P04275)", "T1 construct": "from tissue; host or cells: normal human whole blood", "T1 sequence (P04275 23-2813)": "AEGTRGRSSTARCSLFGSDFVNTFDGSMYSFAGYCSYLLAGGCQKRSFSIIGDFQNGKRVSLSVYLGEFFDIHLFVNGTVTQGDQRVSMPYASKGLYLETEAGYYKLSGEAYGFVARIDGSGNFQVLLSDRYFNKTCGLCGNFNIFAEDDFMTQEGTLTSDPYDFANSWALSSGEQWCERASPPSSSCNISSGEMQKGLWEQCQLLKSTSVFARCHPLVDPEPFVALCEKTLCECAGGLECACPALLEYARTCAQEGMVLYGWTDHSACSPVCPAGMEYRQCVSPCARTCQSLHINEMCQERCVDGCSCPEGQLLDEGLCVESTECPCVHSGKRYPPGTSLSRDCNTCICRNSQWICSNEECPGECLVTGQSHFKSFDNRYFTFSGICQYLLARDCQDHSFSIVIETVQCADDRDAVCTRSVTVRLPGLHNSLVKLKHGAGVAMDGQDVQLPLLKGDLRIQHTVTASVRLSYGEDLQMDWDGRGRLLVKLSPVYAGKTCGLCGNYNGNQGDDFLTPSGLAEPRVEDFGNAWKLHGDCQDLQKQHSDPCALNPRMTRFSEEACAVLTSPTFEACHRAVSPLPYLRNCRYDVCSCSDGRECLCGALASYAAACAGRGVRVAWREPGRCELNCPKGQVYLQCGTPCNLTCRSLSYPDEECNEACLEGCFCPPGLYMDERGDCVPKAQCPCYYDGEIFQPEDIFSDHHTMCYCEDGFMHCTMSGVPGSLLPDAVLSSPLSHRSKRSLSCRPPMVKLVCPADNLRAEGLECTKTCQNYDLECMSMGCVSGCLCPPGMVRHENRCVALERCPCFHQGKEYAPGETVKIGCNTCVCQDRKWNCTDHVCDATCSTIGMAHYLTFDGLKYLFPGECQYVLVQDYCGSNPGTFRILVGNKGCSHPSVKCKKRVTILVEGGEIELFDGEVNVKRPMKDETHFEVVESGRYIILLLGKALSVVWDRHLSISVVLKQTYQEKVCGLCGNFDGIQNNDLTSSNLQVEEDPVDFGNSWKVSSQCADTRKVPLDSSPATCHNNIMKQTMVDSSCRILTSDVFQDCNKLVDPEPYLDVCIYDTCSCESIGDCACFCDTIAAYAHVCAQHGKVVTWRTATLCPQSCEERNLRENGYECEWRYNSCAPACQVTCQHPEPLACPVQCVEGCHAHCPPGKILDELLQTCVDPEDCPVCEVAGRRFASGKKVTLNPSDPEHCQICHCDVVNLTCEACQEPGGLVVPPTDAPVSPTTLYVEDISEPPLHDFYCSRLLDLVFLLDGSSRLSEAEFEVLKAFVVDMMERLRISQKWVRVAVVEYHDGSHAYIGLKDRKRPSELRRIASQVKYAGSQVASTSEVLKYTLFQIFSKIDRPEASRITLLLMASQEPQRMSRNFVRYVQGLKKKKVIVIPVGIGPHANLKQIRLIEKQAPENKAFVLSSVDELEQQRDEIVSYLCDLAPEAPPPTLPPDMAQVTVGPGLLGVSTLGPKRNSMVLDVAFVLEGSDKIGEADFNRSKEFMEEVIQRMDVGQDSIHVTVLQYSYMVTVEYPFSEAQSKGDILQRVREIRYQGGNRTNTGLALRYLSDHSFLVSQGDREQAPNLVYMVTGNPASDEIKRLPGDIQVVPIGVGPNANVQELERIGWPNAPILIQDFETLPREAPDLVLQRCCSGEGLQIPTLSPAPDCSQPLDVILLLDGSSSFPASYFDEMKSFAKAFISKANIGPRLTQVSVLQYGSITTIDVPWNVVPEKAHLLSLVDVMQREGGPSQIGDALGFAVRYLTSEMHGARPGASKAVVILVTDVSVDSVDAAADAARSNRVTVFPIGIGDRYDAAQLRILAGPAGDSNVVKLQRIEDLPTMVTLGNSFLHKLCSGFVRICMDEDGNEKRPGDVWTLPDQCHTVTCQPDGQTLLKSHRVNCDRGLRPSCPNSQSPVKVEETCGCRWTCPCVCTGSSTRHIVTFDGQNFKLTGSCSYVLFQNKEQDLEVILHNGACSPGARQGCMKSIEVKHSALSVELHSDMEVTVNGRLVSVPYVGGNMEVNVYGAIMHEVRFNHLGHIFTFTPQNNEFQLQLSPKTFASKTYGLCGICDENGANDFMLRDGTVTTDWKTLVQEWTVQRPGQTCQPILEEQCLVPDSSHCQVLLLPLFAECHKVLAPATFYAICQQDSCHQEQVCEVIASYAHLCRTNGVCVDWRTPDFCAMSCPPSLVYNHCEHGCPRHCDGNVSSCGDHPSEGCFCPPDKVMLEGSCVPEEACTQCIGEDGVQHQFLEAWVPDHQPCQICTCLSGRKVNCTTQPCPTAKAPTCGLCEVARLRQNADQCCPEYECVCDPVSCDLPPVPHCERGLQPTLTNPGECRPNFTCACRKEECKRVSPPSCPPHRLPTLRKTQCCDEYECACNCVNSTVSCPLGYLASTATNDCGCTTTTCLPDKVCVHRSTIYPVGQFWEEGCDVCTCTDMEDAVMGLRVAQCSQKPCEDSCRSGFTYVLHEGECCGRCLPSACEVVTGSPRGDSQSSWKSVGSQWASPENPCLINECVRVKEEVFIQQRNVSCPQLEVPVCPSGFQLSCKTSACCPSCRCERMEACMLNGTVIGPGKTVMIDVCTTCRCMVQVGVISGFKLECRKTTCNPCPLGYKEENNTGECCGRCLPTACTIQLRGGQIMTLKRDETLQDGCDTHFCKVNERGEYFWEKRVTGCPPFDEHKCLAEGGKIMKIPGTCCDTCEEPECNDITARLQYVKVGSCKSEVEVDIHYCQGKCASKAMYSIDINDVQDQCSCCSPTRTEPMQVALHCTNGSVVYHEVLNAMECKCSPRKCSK", "assay": "PFA-100 platelet function assay: antiplatelet activity of VWF aptamers", "assay_type": "cell-based", "conditions": "whole blood", "method": "The Platelet Function Analyzer, PFA-100 (Dade Behring, Deerfield, Ill.), measures platelet function in terms of clot formation time. In this assay, collagen/ADP cartridges were used to activate the platelets. 800 μl of whole blood was mixed with aptamer in platelet binding buffer (40 μl) (150 mM NaCl; 20 mM Hepes pH:7.4; 5 mM KCl; 1 mM MgCl2 and 1 mM CaCl2) and incubated for 5 min at room temperature. Antidote molecule or platelet buffer (40 μl) was than added and incubated for 5 min at room temperature. This mixture was then added to a collagen/ADP cartridge and tested for its closing time (Harrison, Blood Rev. 19:111 (2005)). The maximum closing time of the PFA-100 is 300 seconds. Data is shown as the change in closing time. All reactions were performed in triplicate."}, "[7]": {"conditions": "9.3t-Bi 150 nM + antidote 2.5 ug/well"}, "[8]": {"conditions": "protamine 2.5 μg, aptamer 150 nM"}}, "note": "Entries after “also recorded” stand apart in the source; their conditions may differ. Positions of bridges follow the written chain, without caps; N, C: chain ends. Non-standard residues stand in square brackets, D forms with d. Residues, ends and D or L forms follow the SMILES beside them. [invdT] = inverted (3'-3') thymidine; hArg = N=C(N)NCCCC[C@H](N)C(=O)O; Mpa = O=C(O)CCS"}
{"molecule": "Protamine", "values": [{"measurement": "reversal of factor Xa aptamer (11F7T) anticoagulant activity", "setting": "aptamer 11F7T; aptamer 250 nM", "value": "reverses"}, {"measurement": "reversal of factor Xa aptamer (11F7T) anticoagulant activity", "setting": "aptamer 11F7T; aptamer 250 nM, listed as protamine", "value": "totally reverse"}, {"measurement": "duration of reversal in vitro (APTT)", "setting": "aptamer 11F7T; protamine", "value": "at least 60 minutes"}, {"measurement": "time after protamine administration to total reversal", "setting": "aptamer 11F7T; protamine 2.5 μg, aptamer 250 nM", "value": "≤ 5", "unit": "min"}, {"measurement": "side effects of administration", "setting": "[1]", "value": "associated with several side effects"}, {"measurement": "time to return of ACT to baseline / reversal", "setting": "[2]", "value": "within five minutes"}, {"measurement": "reversal of aptamer anticoagulation (ACT)", "setting": "[2]", "value": "reverses"}, {"measurement": "reversal of aptamer anticoagulation (ACT)", "setting": "[2]; listed as protamine", "value": "total reversal; also recorded: complete reversal"}, {"measurement": "duration of reversal", "setting": "[2]; Example IV", "value": "at least one hour"}, {"measurement": "duration of reversal (remainder of the experiment)", "setting": "[2]; Example VI", "value": 60, "unit": "min"}, {"measurement": "protamine concentration for total reversal relative to that routinely used to reverse heparin's anticoagulant activity", "setting": "aptamer 9.3t [3]; 2.5 μg protamine, both aptamers 9.3t and 11F7T, lower", "value": 2, "unit": "fold"}, {"measurement": "APTT clotting time", "setting": "aptamer 9.3t [3]; [7]", "value": 30.3, "unit": "s"}, {"measurement": "Reversal", "setting": "aptamer 9.3t [3]; [7]", "value": "Yes"}, {"measurement": "reversal of factor IXa aptamer (9.3t / Ch-9.3t) anticoagulant activity", "setting": "aptamer 9.3t [3]; aptamer 150 nM", "value": "reverses"}, {"measurement": "reversal of factor IXa aptamer (9.3t / Ch-9.3t) anticoagulant activity", "setting": "aptamer 9.3t [3]; aptamer 150 nM, listed as protamine", "value": "returned the clotting time to normal; also recorded: totally reverse"}, {"measurement": "duration of reversal in vitro (APTT)", "setting": "aptamer 9.3t [3]; protamine", "value": "at least 60 minutes"}, {"measurement": "duration of reversal", "setting": "aptamer 9.3t [3]; [8]", "value": "maintained for at least an hour"}, {"measurement": "time after protamine addition to return of clotting time to normal", "setting": "aptamer 9.3t [3]; [8]", "value": "≤ 5", "unit": "min"}, {"measurement": "K1", "setting": "aptamer 9.3t [4]", "value": "3.09e+07", "unit": "M⁻¹"}, {"measurement": "affinity for aptamer 9.3t (in words)", "setting": "aptamer 9.3t [4]", "value": "significant and similar affinities"}, {"measurement": "duration of simultaneous reversal", "setting": "aptamers 9.3t and 11F7T", "value": "maintained for at least an hour"}, {"measurement": "reversal of both aptamers' activity simultaneously", "setting": "aptamers 9.3t and 11F7T", "value": "reverses"}, {"measurement": "reversal of both aptamers' activity simultaneously", "setting": "aptamers 9.3t and 11F7T; listed as protamine", "value": "reverse the anticoagulant activity of the two aptamers simultaneously"}, {"measurement": "APTT clotting time", "setting": "human plasma; antidote 2.5 ug/well", "value": 24, "unit": "s"}]}
{"molecule": "9.3t: factor IXa aptamer, 37 nt 2′fluoropyrimidine modified ssRNA, no carrier (SEQ ID NO: 1) (AUGGGGACUAUACCGCGUAAUGCUGCCUCCCCAUU; 2'-fluoro at CU, RNA at AG, 3' [invdT], backbone not given here)", "values": [{"measurement": "anticoagulant activity (in words)", "setting": "human factor IXa", "value": "potent anticoagulant"}]}
{"molecule": "N=C(N)NCCCC[C@@H]1NC(=O)CCSSC[C@@H](C(N)=O)NC(=O)[C@@H]2CCCN2C(=O)[C@H](Cc2c[nH]c3ccccc23)NC(=O)[C@H](CC(=O)O)NC(=O)CNC1=O", "note": "[eptifibatide] ([Mpa][hArg]GDWPC-NH2; disulfide 1-7)", "values": [{"measurement": "time for clearance of the compound", "setting": "[5]", "value": "2 to 4", "unit": "h"}]}
{"molecule": "β-cyclodextrin-containing polycation (imidazole-containing variant) [CDP-Im]", "values": [{"measurement": "safety profile", "setting": "[6]", "value": "favorable safety profile"}]}
{"molecule": "NCCCNCCCCNCCCN", "note": "[Spermine]", "values": [{"measurement": "Binding constant", "setting": "Aptamer Ch-9.3t", "value": 8800, "unit": "M⁻¹"}, {"measurement": "affinity with aptamer 9.3t (in words)", "setting": "Aptamer Ch-9.3t", "value": "No significant binding"}, {"measurement": "APTT clotting time", "setting": "aptamer 9.3t [3]; 9.3t-Bi 150 nM + antidote 1.3 ug/well", "value": 72.7, "unit": "s"}, {"measurement": "Comments: reversal over antidote range", "setting": "aptamer 9.3t [3]; 9.3t-Bi 150 nM, antidote 1.3 ug/well-10 ug/well", "value": "Did not work b/w 1.3 ug/well-10 ug/well"}, {"measurement": "K1", "setting": "aptamer 9.3t [4]", "value": "1.63e+06", "unit": "M⁻¹"}, {"measurement": "K2", "setting": "aptamer 9.3t [4]; second stage binding", "value": 126000, "unit": "M⁻¹"}, {"measurement": "affinity for aptamer 9.3t (in words)", "setting": "aptamer 9.3t [4]", "value": "orders of magnitude lower"}, {"measurement": "APTT clotting time", "setting": "human plasma; antidote 1.3 ug/well", "value": 63.8, "unit": "s"}]}
{"molecule": "NCCCCNCCCN", "note": "[spermidine, Spermidine]", "values": [{"measurement": "affinity with aptamer 9.3t (in words)", "setting": "Aptamer Ch-9.3t", "value": "No significant binding"}]}
{"molecule": "B1", "values": [{"measurement": "inhibition of platelet function", "setting": "VWF", "value": "can inhibit platelet function"}]}
{"molecule": "B2", "values": [{"measurement": "inhibition of platelet function", "setting": "VWF", "value": "can inhibit platelet function"}]}
